Where two headings read alike, the source gives them in different places.
How the values were obtained:
[1] = molecular target: T1, CCK receptor (brain, cortex) (Cavia porcellus, UniProt H0VZC5); assay: biochemical; format: binding, guinea pig
T1 construct: the cortex was removed and homogenized in 25 mL ice-cold 0.32 M sucrose; from tissue; host or cells: guinea pig brain cortex P2 membrane pellet
T1 sequence (H0VZC5 1-426): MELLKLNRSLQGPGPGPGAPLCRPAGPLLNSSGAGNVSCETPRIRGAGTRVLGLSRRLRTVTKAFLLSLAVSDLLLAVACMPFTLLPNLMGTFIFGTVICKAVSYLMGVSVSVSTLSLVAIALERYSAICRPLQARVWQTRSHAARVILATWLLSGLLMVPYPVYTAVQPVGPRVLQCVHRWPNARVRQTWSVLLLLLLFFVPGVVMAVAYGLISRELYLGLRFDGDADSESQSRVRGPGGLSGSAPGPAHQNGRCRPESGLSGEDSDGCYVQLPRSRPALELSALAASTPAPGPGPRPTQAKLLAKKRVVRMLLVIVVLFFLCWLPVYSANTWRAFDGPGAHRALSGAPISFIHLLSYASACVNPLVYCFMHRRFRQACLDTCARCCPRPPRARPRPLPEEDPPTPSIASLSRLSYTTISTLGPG
Procedure: CCK-8 sulphated was radiolabelled and the binding was performed according to the description for the pancreas method with minor modifications.
Male Hartley guinea pigs (300-500g) were sacrificed by decapitation and the cortex was removed and homogenized in 25 mL ice-cold 0.32 M sucrose. The homogenates were centrifuged at 1000 g for 10 minutes and the resulting supernatant was recentrifuged at 20,000 g for 20 minutes. The P₂ pellet was resuspended in binding assay buffer (20mM HEPES, 5 mM MgCl₂, 0.25 mg/ml bacitracin, 1 mM EGTA pH 6.5 at 25°C), using a Teflon (trademark) homogenizer (5 strokes at 500 rpm) to give a final concentration of 10 mg original wet weight/1.2 ml buffer. […] All assays were run in duplicate. The reaction mixtures were incubated at 25°C for 2 hours and then the reaction was terminated by rapid filtration (Brandell 24 well cell harvester) on Whatman GF/C filters with 3 x 5 ml washes of cold 100 mM NaCl. The radioactivity on the filters was counted with a LKB gamma counter.
(§1) Drug displacement studies were performed with at least 10 concentrations of compounds of Formula I and the IC₅₀ values were determined by regression analysis IC₅₀ refers to the concentration of the compound required to inhibit 50% of specific binding of ¹²⁵I-CCK-8.

CCK receptor (pancreas) = molecular target: T2, CCK receptor (pancreas) (Rattus norvegicus, UniProt P30551); assay: biochemical; format: binding; details: rat pancreas membranes; for IC50: 50 pM 125I-CCK-8, 25°C 2 hours
T2 construct: The whole pancreas was dissected free of fat tissue and was homogenized; from tissue; host or cells: rat pancreas membrane homogenate
T2 sequence (P30551 1-444): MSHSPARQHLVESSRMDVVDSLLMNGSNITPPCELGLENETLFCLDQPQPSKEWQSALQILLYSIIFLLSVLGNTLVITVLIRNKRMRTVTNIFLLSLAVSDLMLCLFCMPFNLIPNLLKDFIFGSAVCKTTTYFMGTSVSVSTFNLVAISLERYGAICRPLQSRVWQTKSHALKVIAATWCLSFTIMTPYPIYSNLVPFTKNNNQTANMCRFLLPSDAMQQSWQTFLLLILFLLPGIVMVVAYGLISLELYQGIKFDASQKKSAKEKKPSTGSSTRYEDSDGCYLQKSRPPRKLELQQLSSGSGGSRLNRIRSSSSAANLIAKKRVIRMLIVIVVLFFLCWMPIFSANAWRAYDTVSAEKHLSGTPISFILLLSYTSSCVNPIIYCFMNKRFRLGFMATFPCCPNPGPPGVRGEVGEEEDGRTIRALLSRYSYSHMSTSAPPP
Procedure: CCK-8 sulphated was radiolabelled with ¹²⁵I-Bolton Hunter reagent (2000 Ci/mmole). Receptor binding was performed according to Chang and Lotti (Proc. Natl. Acad. Sci. 83, 4923-4926, 1986) with minor modifications.
Male Sprague-Dawley rats (150-200g) were sacrificed by decapitation. The whole pancreas was dissected free of fat tissue and was homogenized in 25 volumes of ice-cold 10 mM N-2-hydroxyethyl-piperazine-N′-2-ethane sulphonic acid (HEPES) buffer with 0.1% soya bean trypsin inhibitor (pH 7.4 at 25°C) with a Kinematica Polytron. The homogenates were centrifuged at 47,800 g for 10 min. Pellets were resuspended in 10 volumes of binding assay buffer (20mM (HEPES)), 1mM ethylene glycol-bis-(β-aminoethylether-N,N′-tetraacetic acid) (EGTA), 5mM MgCl₂, 150 mM NaCl, bacitracin 0.25 mg/ml, soya bean trypsin inhibitor 0.1 mg/ml, and bovine serum albumin 2 mg/ml pH 6.5 at 25°C) using a Teflon (trademark) homogenizer, 15 strokes at 500 rpm. The homogenate was further diluted in binding assay buffer to give a final concentration of 0.5 mg original wet weight/1 ml buffer. […] All assays were run in duplicate. The reaction mixtures were incubated at 25°C for 2 hours and the reaction terminated by rapid filtration (Brandell 24 well cell harvester) over Whatman GF/C filters, washing 3 x 4 mls with ice-cold 100 Mm NaCl. The radioactivity on the filters was counted with a LKB gamma counter.
as §1

[2] = guinea pig cortex membranes, 50 pM 125I-CCK-8, 25°C 2 hours, read-out: IC50 ^125I-CCK Brain

| SMILES | IC50 [1, 2] [µM] | IC50 (CCK receptor (pancreas)) [µM] | IC50 [1] [µM] | inhibition at 3 µM (CCK receptor (pancreas); at 3μM, read-out: inhibition of ^125I-CCK binding, Pancreas) [%] |
| --- | --- | --- | --- | --- |
| CN1C(=O)[C@@H](NC(=O)Nc2cccc(C(=O)NS(=O)(=O)c3ccccc3)c2)N=C(C2CCCCC2)c2ccccc21 [Example 35, N-[3(S)-5-Cyclohexyl-2,3-dihydro-1-methyl-2-oxo-1H-1,4-benzodiazepin-3-yl] N′-[3-(phenylsulphonylaminocarbonyl)phenyl] urea] | 0.0508 | 0.0102 |  |  |
| CC(C)CN1C(=O)C(NC(=O)Nc2cccc(C(=O)NS(C)(=O)=O)c2)N=C(C2CCCCC2)c2ccccc21 (racemic) [Example 19, N-(3(R,S)-5-Cyclohexyl-2,3-dihydro-1-(2-methylpropyl)-2-oxo-1H-1,4-benzodiazepin-3-yl] N′-[3-(methylsulphonylaminocarbonyl)phenyl] urea] | 0.012 | 0.57 |  |  |
| CCCN1C(=O)C(NC(=O)Nc2cccc(C(=O)NS(=O)(=O)C(C)(C)C)c2)N=C(C2CCCC2)c2ccccc21 (racemic) [Example 37, N-[3(R,S)-5-Cyclopentyl-2,3-dihydro-1-propyl-2-oxo-1H-1,4-benzodiazepin-3-yl] N′-[3-(1,1-dimethylethylsulphonylaminocarbonyl)phenyl] urea] | 0.00019 | 0.96 |  |  |
| CN1C(=O)C(NC(=O)Nc2cccc(-c3nn[nH]n3)c2)N=C(C2CCCC2)c2ccccc21 (racemic) [Example 8, N-[3(R,S)-5-Cyclopentyl-2,3-dihydro-1-methyl-2-oxo-1H-1,4-benzodiazepin-3-yl] N′-[3-tetrazol-5-ylphenyl] urea] | 0.0016 | 0.056 |  |  |
| Cc1ccc(NC(=O)N[C@@H]2N=C(C3CCCCC3)c3ccccc3N(C)C2=O)cc1C(=O)NS(C)(=O)=O [Example 34, N-[3(R)-5-Cyclohexyl-2,3-dihydro-1-methyl-2-oxo-1H-1,4-benzodiazepin-3-yl] N′-[4-methyl-3-(methylsulphonylaminocarbonyl)phenyl] urea] | 0.0023 | 1.7 |  |  |
| CN1C(=O)C(NC(=O)Nc2cccc(C(=O)O)c2)N=C(C2CCCCC2)c2ccccc21 (racemic) [Example 10, N-[3(R,S)-5-Cyclohexyl-2,3-dihydro-1-methyl-2-oxo-1H-1,4-benzodiazepin-3-yl] N′-[3-carboxyphenyl] urea] |  | 0.0031 | 0.0014 |  |
| CN1C(=O)C(NC(=O)Nc2cccc(S(=O)(=O)NC(=O)C(C)(C)C)c2)N=C(C2CCCCC2)c2ccccc21 (racemic) [Example 32, N-(3(R,S)-5-Cyclohexyl-2,3-dihydro-1-methyl-2-oxo-1H-1,4-benzodiazepin-3-yl] N′-(3-(1,1-dimethylethylcarbonylaminosulphonyl)phenyl] urea] | 0.0013 | 0.61 |  |  |
| Cc1ccccc1S(=O)(=O)NC(=O)c1cccc(NC(=O)N[C@@H]2N=C(C3CCCCC3)c3ccccc3N(C)C2=O)c1 [Example 33, N-[3(R)-5-Cyclohexyl-2,3-dihydro-1-methyl-2-oxo-1H-1,4-benzodiazepin-3-yl] N′-[3-(2-methylphenylsulphonylaminocarbonyl)phenyl] urea] |  | 1.6 |  |  |
| CN1C(=O)C(NC(=O)Nc2cccc(C(=O)NS(=O)(=O)c3ccccc3)c2)N=C(C2CCCC2)c2ccccc21 (racemic) [Example 40, N-[3(R,S)-5-Cyclopentyl-2,3-dihydro-1-methyl-2-oxo-1H-1,4-benzodiazepin-3-yl] N′-[3-(phenylsulphonylaminocarbonyl)phenyl] urea] |  | 0.31 |  |  |
| Cc1cccc(NC(=O)NC2N=C(C3CCCCC3)c3ccccc3N(C)C2=O)c1 (single isomer, unassigned) [7 (Peak B)] | 0.1 |  |  |  |
| CC(C)CN1C(=O)C(NC(=O)Nc2cccc(-c3nn[nH]n3)c2)N=C(C2CCCCC2)c2ccccc21 (racemic) [Example 2, N-[3(R,S)-5-Cyclohexyl-2,3-dihydro-1-(2-methylpropyl)-2-oxo-1H-1,4-benzodiazepin-3-yl] N′-[3-tetrazol-5-ylphenyl] urea] | 0.00042 |  |  | ~27 |
| CC(C)S(=O)(=O)NC(=O)c1cccc(NC(=O)NC2N=C(C3CCCCC3)c3ccccc3N(C)C2=O)c1 (single isomer, unassigned) [24 (Peak B)] |  | 0.005 |  |  |
| CCCN1C(=O)C(NC(=O)Nc2cccc(-c3nn[nH]n3)c2)N=C(C2CCCC2)c2ccccc21 (racemic) [Example 6, N-[3(R,S)-5-Cyclopentyl-2,3-dihydro-1-propyl-2-oxo-1H-1,4-benzodiazepin-3-,yl] N′-[3-tetrazol-5-ylphenyl] urea] | 0.00096 | 1.1 |  |  |
| CN1C(=O)C(NC(=O)Nc2cccc(S(=O)(=O)Nc3nncs3)c2)N=C(C2CCCCC2)c2ccccc21 (racemic) [Example 21, N-[3(R,S)-5-Cyclohexyl-2,3-dihydro-1-methyl-2-oxo-1H-1,4-benzodiazepin-3-yl] N′-[3-(1,3,4-thiadiazol-2-ylaminosulphonyl)phenyl]urea] | 0.0012 | 0.0097 |  |  |
| CCCN1C(=O)C(NC(=O)Nc2cccc(C(=O)NS(C)(=O)=O)c2)N=C(C2CCCCC2)c2ccccc21 (racemic) [Example 25, N-[3(R,S)-5-Cyclohexyl-2,3-dihydro-1-propyl-2-oxo-1H-1,4-benzodiazepin-3-yl] N′-(3-(methylsulphonylaminocarbonyl)phenyl]urea] | 0.0019 | 0.22 |  |  |
| CC(C)CN1C(=O)C(NC(=O)Nc2cccc(-c3nn[nH]n3)c2)N=C(C2CCCC2)c2ccccc21 (racemic) [Example 3, N-[3(R,S)-5-Cyclopentyl-2,3-dihydro-1-(2-methylpropyl)-2-oxo-1H-1,4-benzodiazepin-3-yl] N′-[3-tetrazol-5-ylphenyl]urea] | 0.0003 | 0.8 |  |  |
| CN1C(=O)C(NC(=O)Nc2ccc3c(c2)C(=O)NS(=O)(=O)C3)N=C(C2CCCCC2)c2ccccc21 (racemic) [Example 44, N-[3(R,S)-5-Cyclohexyl-2,3-dihydro-1-methyl-2-oxo-1H-1,4-benzodiazepin-3-yl] N′-(3,4-dihydro-2,2-dioxo-4-oxo-1H-2,3-benzothiazin-6-yl] urea] | 0.0034 | 0.1 |  |  |
| CN1C(=O)C(NC(=O)Nc2cccc(C(=O)NS(C)(=O)=O)c2)N=C(C2CCCCC2)c2ccccc21 (racemic) [Example 16, N-(3(R,S)-5-Cyclohexyl-2,3-dihydro-1-methyl-2-oxo-1H-1,4-benzodiazepin-3-yl] N′-[3-(methylsulphonylaminocarbonyl)phenyl] urea] |  | 0.002 |  |  |
| CN1C(=O)C(NC(=O)Nc2cccc(S(=O)(=O)NC(=O)c3ccccc3)c2)N=C(C2CCCCC2)c2ccccc21 (racemic) [Example 13, N-(3(R,S)-5-Cyclohexyl-2,3-dihydro-1-methyl-2-oxo-1H-1,4-benzodiazepin-3-yl] N′-[3-(phenylcarbonylaminosulphonyl)phenyl] urea] |  | 0.738 |  |  |

Reference: patent EP0514133A1, “Benzodiazepine derivatives, compositions containing them and their use in therapy” (priority 1991, dated 1992)
